Each block holds one compound with its values, some of them ahead of it. Non-standard residues stand in square brackets, D forms with d. Residues, ends and D or L forms follow the SMILES beside them.
How the values were obtained:
CXCR4 [1] = target: T1, CXCR4 (Homo sapiens, UniProt P61073); assay: Ca2+ mobilization; type: cell-based; details: Sup-T1 cells; for Ca2+ efflux (signaling) with increasing concentrations: Fura-2/AM ratiometric, plate reader, DV1 tested up to 40 µM
Sup-T1 cells = assay: Boyden chamber chemotaxis assay, Sup-T1 cells; type: cell-based, human; details: peptide in lower chamber at titrated concentrations, 37°C 2 h
CXCR4 [2] = target: T1, CXCR4; details: hNSCs preincubated with 10 µM, osmotic pump 24-72 h, analysis 3 d posttransplant
hNSCs [3] = assay: Boyden chamber transmigration assay, hNSCs; type: cell-based, human; details: hNSCs 1x10^5, 8-µm fibronectin-coated transwell, 5 h
CXCR4 [4] = target: T1, CXCR4; assay: Receptor endocytosis analysis; type: cell-based; details: hNSCs, ligand 4 µg/mL, 37°C
hNSCs [5] = assay: Microarray gene expression and gene ontology analysis of hNSCs; type: cell-based, human; details: hNSCs vs non-treated control
transplanted hNSCs = type: in vivo, mouse; details: adult C57BL/6J mice, 2 µl injected into cortex or hippocampus, n=3 per group
[6] = Persistence and pharmacokinetics in mouse brain; type: in vivo
activated M1 microglia = assay: Microgliosis and safety after intracerebral injection in adult mice; type: in vivo, mouse; details: for CD11b+ cells (activated M1 microglia): adult mouse brain after injection, n = 3 mice per condition
CXCR4 [7] = target: T1, CXCR4; assay: Single-cell [Ca2+]i; type: cell-based; details: SDV1a 10 µM; at least 11 cells per condition
hNSCs [8] = assay: CyQuant proliferation assay, hNSCs; type: cell-based, human; details: SDV1a 10 nM, 72 h
ERK1/2, p38-MAPK, IκBα = assay: Western blot of phosphorylation downstream of CXCR4 in hNSCs; type: cell-based, human; details: hNSC lysates
[9] = tested on: Sandhoff disease (Hexβ−/−) mice; assay: Sandhoff disease; type: in vivo, mouse
[10] = 4-mo-old mice, hiPSC-hNSCs + SDV1a, n = 6

T1 sequence (P61073 whole entry): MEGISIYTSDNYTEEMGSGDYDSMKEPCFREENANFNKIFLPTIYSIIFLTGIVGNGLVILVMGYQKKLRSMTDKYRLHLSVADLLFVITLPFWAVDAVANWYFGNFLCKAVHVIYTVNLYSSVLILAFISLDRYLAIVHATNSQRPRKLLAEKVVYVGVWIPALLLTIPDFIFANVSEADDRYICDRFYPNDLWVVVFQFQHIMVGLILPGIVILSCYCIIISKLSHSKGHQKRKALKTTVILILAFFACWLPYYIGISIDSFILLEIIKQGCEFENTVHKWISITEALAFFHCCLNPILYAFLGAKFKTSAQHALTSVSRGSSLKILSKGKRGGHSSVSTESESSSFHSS

- Ca2+ efflux (signaling) with increasing concentrations (CXCR4 [1]): evoked no signaling
Compound: D-(1~21)-vMIP-II [DV1]
- Chemotaxis of Sup-T1 cells (upper to lower chamber) (Sup-T1 cells): elicited no chemotaxis

- Effect of CXCR4 inhibition on hNSC migration to SDV1a (CXCR4 [2]): abrogated
Compound: c1cc(CN2CCCNCCNCCCNCC2)ccc1CN1CCCNCCNCCCNCC1 [AMD3100]

Compound: C-X-C motif chemokine ligand-12 [CXCL12]
- Ca2+ efflux (signaling) with increasing concentrations (CXCR4 [1]): produced the most intense signaling
- Concentration at which hNSC chemotaxis peaks (bell-shaped dose-response) (hNSCs [3]): 0.5 nM
- Time after which cell surface CXCR4 starts to rebound (CXCR4 [4]): > 45 min
- Time to down-regulation of CXCR4 surface expression (CXCR4 [4]): ≤ 10 min
- Gene ontology profile induced in hNSCs (hNSCs [5]): up-regulation of inflammatory and immune-related processes
- Attraction of hNSCs transplanted into the contralateral hippocampus (transplanted hNSCs): drew no hNSCs
- Time by which undetectable in brain after administration ([6]; similarly labeled recombinant CXCL12, adult mouse brain): ≤ 2 days
- Persistence of microgliosis postinjection (activated M1 microglia; adult mouse brain): 2 wk
- CD11b+ cells (activated M1 microglia) (activated M1 microglia): 11.7 ± 2.8 per 0.4 mm^2

Compound: L-(1~8)-SDF1a (KPVSLSYR; UniProt P48061 22-29, looked up, fragment) [S1]
- Chemotaxis of Sup-T1 cells (upper to lower chamber) (Sup-T1 cells): elicited no chemotaxis

Compound: CC(C)C[C@H](NC(=O)[C@H](CO)NC(=O)[C@@H](NC(=O)[C@@H]1CCCN1C(=O)[C@@H](N)CCCCN)C(C)C)C(=O)N[C@@H](CO)C(=O)N[C@@H](Cc1ccc(O)cc1)C(=O)N[C@@H](CCCNC(=N)N)C(=O)NCC(=O)NCC(=O)N[C@H](CC(C)C)C(=O)NCC(=O)N[C@H](C)C(=O)N[C@H](CO)C(=O)N[C@H](Cc1c[nH]c2ccccc12)C(=O)N[C@H](Cc1c[nH]cn1)C(=O)N[C@H](CCCNC(=N)N)C(=O)N1CCC[C@@H]1C(=O)N[C@H](CC(=O)O)C(=O)N[C@H](CCCCN)C(=O)N[C@H](CS)C(=O)N[C@H](CS)C(=O)N[C@H](CC(C)C)C(=O)NCC(=O)N[C@H](Cc1ccc(O)cc1)C(=O)N[C@H](CCC(N)=O)C(=O)N[C@H](CCCCN)C(=O)N[C@H](CCCNC(=N)N)C(=O)N1CCC[C@@H]1C(=O)N[C@H](CC(C)C)C(=O)N1CCC[C@@H]1C(N)=O [SDV1a, L-(1∼8)-SDF1α-GG-D-(1∼21)-vMIP-II] (H-KPVSLSYRGG[dL]G[dA][dS][dW][dH][dR][dP][dD][dK][dC][dC][dL]G[dY][dQ][dK][dR][dP][dL][dP]-NH2; N-terminus assumed)
- Signaling intensity (Ca2+ release) relative to CXCL12/SDF1α (CXCR4 [1]; Fura-2/AM): an order-of-magnitude less
- Change of [Ca2+]i in single hNSCs (CXCR4 [7]): increased [Ca^2+]i
- Concentration at which hNSC chemotaxis peaks (bell-shaped dose-response) (hNSCs [3]): 5 nM
- Increase in total DNA content compared to untreated controls (hNSCs [8]): 10%
- Phosphorylation of p38-MAPK (Thr180/Tyr182) and IκBα (Ser-32/36) (ERK1/2, p38-MAPK, IκBα): phosphorylated
- Time to down-regulation of CXCR4 surface expression (CXCR4 [4]): 90 min
- Gene ontology profile induced in hNSCs (hNSCs [5]): primarily induced genes associated with developmental, homeostatic, and stem cell-related functions
- Persistence in brain after injection ([6]; FITC- or biotin-tagged SDV1a, adult mouse brain): 3 wk
- Time to dissemination throughout the regions ([6]; postinjection, C57BL/6J mice, HPLC-MS/MS): ≤ 30 min
- CD11b+ cells (activated M1 microglia) (activated M1 microglia): 1.1 ± 1.0 per 0.4 mm^2
- Systemic or CNS toxicity, behavior (activated M1 microglia; mice after intracerebral injection): no evidence of systemic or CNS toxicity or altered behavior
- GM2 ganglioside storage in cortex [9, 10]: little GM2 accumulation occurred
- Microgliosis (Iba1) in cortex where donor cells engrafted [9, 10]: scant
- Hex enzyme levels in CNS parenchyma ([9]; hiPSC-hNSC+SDV1a, regions where donor cells were attracted): raised beyond the critical 3 to 5% therapeutic threshold
